Measured values reported in patent publication US3978055A, “Arylamino pyrimidinic derivatives” (priority 1973, dated 1976).
Where two headings read alike, the source gives them in different places.

Legend:
[1] = tested on: isolated heart of guinea-pig; assay: Augmentation of flow of coronary vessels of isolated heart (vasodilatatory); conditions: Cavia porcellus, read-out: Percentage augmentation of flow of isolated heart of guinea-pig
Description: The derivatives of formula I are capable of augmenting the flow of the coronary vessels of this isolated heart of a guinea - pig, when said derivatives are added in the perfusion liquid of said organ.
The percentage augmentation of the flow of the isolated heart of the guinea - pig by adding different derivatives of formula I to the perfusion liquid are given by way of example in the following Table V.

[2] = Lethal doses / percentage mortality; format: in vivo; conditions: in vivo, mouse; for LD50: po, Table IX, read-out: DE 50 (second column; DL 50) (converted)
Text: (§1) As a result of a comparison between the pharmacologically active doses mentioned above, and the lethal doses listed in the following table XIV, the difference between the doses is sufficiently great to permit the utilisation of the derivatives of formula I in therapeutics.

[3] = tested on: painful stretchings caused by phenylbenzoquinone; assay: Analgesic test with phenylbenzoquinone (painful stretchings); format: in vivo; conditions: Mus musculus, po; for ED50: read-out: 105 DE (DE 50)
[4] = tested on: arterial pressure of anaesthetised rat; assay: Lowering of arterial pressure of anaesthetised rat (hypotensive properties); format: in vivo; conditions: 2 mg/kg/i.v.
Text: Administered by intraveinous means to an anaesthetised rat, the derivatives of formula I provoke a lowering of the arterial pressure.
By way of example, the following Table VIII mentions the results obtained by administration of different derivatives of formula I.

[5] = tested on: bronchoconstriction provoked by acetylcholine; assay: Bronchoconstriction provoked by intravenous acetylcholine, Konzett method; format: in vivo; conditions: guinea-pig, intraperitoneal injection of 100mg/kg
Description: Injected by intraduodenal means, the derivatives of formula I are capable of opposing the bronchoconstriction provoked in the guinea - pig by the intraveinous injection of acetylcholine and evaluated by the Konzett method.
By way of example, the following Table VI lists the percentage inhibition of the bronchoconstriction following the intraperitoneal injection of 100mg/kg of different derivatives of formula I.

[6] = tested on: Shay ulcers; assay: Gastric ulcers provoked by tying of the pylorus (Shay ulcers); format: in vivo; conditions: intraduodenal; rat, 50mg/kg/i.d.; read-out: Percentage reduction of shay ulcers
Description: The derivatives of formula I, administered by oral means, reduce the extent of gastric ulcers provoked in a rat by tying of the pylorus (Shay ulcers)
Table IV indicated, by way of example, the results obtained by the administration of 50mg/kg/i.d. of different derivatives of formula I.

[7] = tested on: painful stretchings caused by acetic acid; assay: Analgesic test with acetic acid (painful stretchings); format: in vivo, mouse; conditions: po, read-out: 105 DE (DE 50)
[8] = tested on: crying and jumping in the Randall and Selitto test; assay: Randall and Selitto test; format: in vivo, rat; conditions: for ED50: po, read-out: 105 DE (DE 50)
[9] = tested on: pain threshold in the dentary pulp stimulation test; assay: Dentary pulp stimulation test; format: in vivo; conditions: rabbit
Text: Moreover, the derivatives of formula I, administered rectally to a rabbit, enabled the pain threshold to be raised in the dentary pulp stimulation test.
As an example, the following table XI gives the results of a comparative study between the activity of derivative code number 730 229 and that of glaphenine, the activities being estimated by the dentary stimulation test

[10] = tested on: painful stretchings caused by bradykinine; assay: Analgesic test with bradykinine (painful stretchings); format: in vivo, mouse; conditions: Mus musculus, po, read-out: 105 DE (DE 50)
[11] = tested on: mouse; assay: Lethal doses / percentage mortality; format: in vivo; conditions: Table IX
Text: as §1

[12] = tested on: local oedema caused by sub-plantar injection of carraghenine; assay: Sub-plantar oedema caused by carraghenine (antiinflammatory); format: in vivo, rat; conditions: for ED50: po; for inhibition in vivo at 100 mg/kg: 100 mg/kg/PO, read-out: Percentage reduction of subplantar oedema
Text: These properties are shown by a diminution of the local oedema caused by the sub-plantar injection of a phlogogenic agent, such as carraghenine, in the rat following the oral administration of derivatives of formula I.

[13] = tested on: volume of urine emitted; assay: Augmentation of urinary elimination (diuretic properties); format: in vivo; conditions: po; mouse, 25mg/kg/p.o., 6 hours; read-out: Percentage augmentation of urinary elimination
Description: The derivatives of formula I, administered by oral means to the mouse, simultaneously with a volume of 1ml of an isotonic solution of sodium chloride per 25g of the corporeal weight of the mouse, are capable of provoking an augmentation of the volume of urine emitted by reference to control animals, the volume being measured for 6 hours following administration.
The following Table VII indicates, by way of example the percentage augmentation of urinary elimination resulting from the administration of 25mg/kg/p.o. of different derivatives of formula I.

[14] = tested on: analgesic action of dextromoramide in the Eddy test; assay: Eddy test (potentialisation of dextromoramide analgesia); format: in vivo, mouse; conditions: for ED50: Mus musculus, po, read-out: 105 DE (DE 50)
[15] = antiinflammatory activity, rat, read-out: DE 50 (the source's name)

Structure (SMILES) | mortality ([2]; 2000 mg/kg, 2 000 mg/kg/PO) [%] | Percentage inhibition of bronchoconstriction [5] [%] | inhibition in vivo at 50 mg/kg [6] [%] | ED50 [10] [mg/kg] | LD50 [2] [mg/kg] | ED50 [3] [mg/kg] | ED50 [14] [mg/kg] | also measured
Cc1cc(Nc2ccc(OCCN(C)C)cc2)nc(-c2cccc(C(F)(F)F)c2)n1 [730 241] | 0 |  |  |  |  |  |  | activation at 0.5 µg/mL ([1]; 0.5 μg/ml): 77%; inhibition in vivo at 100 mg/kg ([3]; read-out: Percentage of diminution of the number of painful stretchings): 67%; Percentage reduction of arterial pressure of anaesthetised rat [4]: 24%; Duration of effect ([4]; hypotensive effect): 30 mn
Cc1cc(Nc2ccc(C(=O)N3CCCCC3)cc2)nc(-c2ccc(Cl)cc2)n1 [72 276] | 0 | 50 | 40 |  |  |  |  | 
O=C(OCC(O)CO)c1ccccc1Nc1ccnc2cc(Cl)ccc12 (centres unmarked) [glaphenine, N-(7-chloro-4-quinolyl) anthranilic acid 2,3-dihydroxypropylester] |  |  |  | 48 | 1900 | 60 |  | ED50 ([7]; test with acetic acid, mouse): 80 mg/kg; ED50 ([8]; Randall and Selitto test, rat): 65 mg/kg; Duration of action ([9]; 50 mg/kg rectally): 1 h; Number of rabbits whose pain threshold is increased by 0,5 V ([9]; 50 mg/kg rectally): 4/10; Duration of action ([9]; 100 mg/kg rectally): 1,5 hours; Number of rabbits whose pain threshold is increased by 0,5 V ([9]; 100 mg/kg rectally): 6/10; Peak action ([9]; 100 mg/kg rectally): 45 mn; Duration of action ([9]; 200 mg/kg rectally): 2 h; Number of rabbits whose pain threshold is increased by 0,5 V ([9]; 200 mg/kg rectally): 8/10; DE 50 (second column; DL 50) [11]: 1 900 mg/kg/PO; ED50 [12, 15]: 9 mg/kg
Cc1cc(Nc2ccccc2C(=O)OCC(O)CO)nc(-c2cccc(F)c2)n1 (centres unmarked) [72 826] | 0 | 100 |  |  |  |  |  | change in vivo at 25 mg/kg [13]: 80%; inhibition in vivo at 100 mg/kg ([12]; rat): 60%
Cc1c(N(C)C)c(=O)n(-c2ccccc2)n1C [amidopyrine, 4-dimethylamino-2,3-dimethyl-1 phenyl-3-pyrazolin-5-one, reference compound] |  |  |  | 48 | 1050 | 45 | 35 | ED50 ([7]; test with acetic acid, mouse): 80 mg/kg; DE 50 / DL 50 ([8]; Randall and Selitto test): 1.10^-1; ED50 ([8]; Randall and Selitto test, rat): 110 mg/kg; DE 50 (second column; DL 50) [11]: 1 050 mg/kg/PO; ED50 [12, 15]: 140 mg/kg
Cc1cc(Nc2ccc(C(N)=O)cc2)nc(-c2ccc(Cl)cc2)n1 [72 311] | 0 | 80 | 40 |  |  |  |  | inhibition in vivo at 100 mg/kg ([12]; rat): 50%
Cc1cc(Nc2ccc(OCCN(C)C)cc2)nc(-c2cccc(Cl)c2)n1 [730 262] |  |  |  | 100 | 2500 | 52 | 60 | mortality ([2]; 2 2500 mg/kg/PO): ~50%; DE 50 (second column; DL 50) [11]: 2 500 mg/kg/PO
Cc1cc(Nc2ccc(C(=O)N3CCCC3)cc2)nc(-c2ccc(Cl)cc2)n1 [72 255] | 0 | 50 | 35 |  |  |  |  | activation at 1 µg/mL ([1]; 1 μg/ml): 45%; inhibition in vivo at 100 mg/kg ([12]; rat): 60%
Cc1cc(Nc2ccccc2C(=O)OCC(O)CO)nc(-c2cccc(C(F)(F)F)c2)n1 (stereo not drawn) [72 502, 2 - (3' - trifluoromethylphenyl)-4-[ortho (β, γ-dihydroxy propoxycarbonyl)phenylamino] -6-methyl pyrimidine] | 0 | 50 | 35 |  |  |  |  | 
Cc1cc(Nc2ccc(C(N)=O)cc2)nc(-c2ccc3c(c2)OCO3)n1 [730 025] | 0 | 50 | 35 |  |  |  |  | change in vivo at 25 mg/kg [13]: 140%
CC(=O)Oc1ccccc1C(=O)O [acetylsalicylic acid, reference compound] |  |  |  | 180 | 700 | 72 | > 200 | ED50 ([7]; Mus musculus): 115 mg/kg; ED50 ([8]; Rattus norvegicus): 110 mg/kg; effect in Eddy test (40 % with 200) ([14]; 200 mg/kg/PO): 40%; ED50 ([12]; Rattus norvegicus, read-out: DE 50): 40 mg/kg
Cc1cc(Nc2ccc(OCCN(C)C)cc2)nc(-c2ccc(Cl)cc2)n1 [730 225] | ~20 |  | 53 |  | > 2000 | 42 | 80 | Percentage of diminution of the number of painful stretchings ([8]; Randall and Selitto test, 100 mg/kg/PO): 50%
